Source: publication PMC7898037, “Improving mitochondria and ER stability helps eliminate upper motor neuron degeneration that occurs due to mSOD1 toxicity and TDP‐43 pathology” (Clinical and Translational Medicine, 2021)

Columns and labels:
[1] = test system: UMN apical dendrites of WT‐UeGFP mice; assay: UMN apical dendrites with vacuoles, WT‐UeGFP mice; format: in vivo
Method: (§1) hSOD1^G93A‐UeGFP, prpTDP‐43^A315T‐UeGFP and WT‐UeGFP mice were weighed and the required NU‐9 dose per weight was calculated (20 or 100 mg/kg), which was administered once daily by oral gavage, starting at postnatal day (P)60 and continuing until P120. Animals from the untreated group received the vehicle (NMP and olive oil) only. For oral administration purposes, 20 ga × 38 mm plastic feeding tubes were used (Instech Laboratories, Inc). The gavage tip was inserted into the mouth directly over the tongue and into the pharynx. While observing the swallowing reflex, the tip was safely and smoothly slid into the esophagus. Once the administration was completed, the gavage tip was pulled straight out.
Mice were deeply anesthetized using ketamine (90 mg/kg) with xylazine (10 mg/kg), and transcardially perfused with 4% PFA in PBS. The brains were removed intact and postfixed (4% PFA, overnight) and stored in PBS with sodium azide (0.01%) at 4°C. Sections were cut in a coronal (50 µm) plane using a vibratome (Leica) and processed for immunocytochemical analyses.
The antibodies used are as follows: anti‐GFP (1:1000, Invitrogen; or 1:1000, Abcam) and anti‐misfolded SOD1 (B8H10, 1:250, Médimabs). Briefly, sections were treated with blocking solution (PBS, 0.05% BSA, 2% FBS, 1% Triton X‐100, and 0.1% saponin) for 30 min at room temperature and incubated with primary antibody diluted in blocking solution overnight at 4°C. Appropriate secondary fluorescent antibodies (1:500, AlexaFluor‐conjugated, Invitrogen) were added to the blocking solution at room temperature for 2 h in the dark.

hSOD1^G93A‐UeGFP mice = assay: Hanging wire test (max 60 s), hSOD1^G93A‐UeGFP mice; format: in vivo; set-up: Mean Diff. (wire hanging), vehicle vs. NU-9 / Mean (wire hanging): unit not given here; details: for Hanging wire test, group mean (Mean 1 / Mean 2): hSOD1G93A-UeGFP (GS) mice; for wire hanging, Average / Mean (wire hanging): hSOD1G93A-UeGFP
Method: as §1
Behavior data were collected from hSOD1^G93A‐UeGFP and WT‐UeGFP mice (starting at P60 and every 7 days until P116) and from prpTDP‐43^A315T‐UeGFP mice (at P60, P90, and P120) with the following number of mice for each group: WT‐UeGFP vehicle (n = 10), hSOD1^G93A‐UeGFP vehicle (n = 6), WT‐UeGFP 20 mg/kg/day NU‐9 (n = 5), hSOD1^G93A‐UeGFP 20 mg/kg/day NU‐9 (n = 7), WT‐UeGFP 100 mg/kg/day NU‐9 (n = 11), hSOD1^G93A‐UeGFP 100 mg/kg/day NU‐9 (n = 9), prpTDP‐43^A315T‐UeGFP untreated (n ≥ 3), and prpTDP‐43^A315T‐UeGFP 100 mg/kg/day NU‐9 (n = 4) (Table S3).
Mice were placed on a wire mesh, which was then inverted and suspended above the home cage; the time when the animal fell was recorded. This test was performed three times for a maximum of 60 s each session, with a 1‐min rest period between each trial. The average performance for each session is presented as the average of the three trials.

[2] = WT-UeGFP mice, NU-9 100 mg/kg/day

C[C@H](Oc1cc(C(F)(F)F)cc(C(F)(F)F)c1)C1CC(=O)CC(=O)C1 [NU‐9]
Mean, Fig. 4G (UMN apical dendrites with vacuoles) [1, 2]: 16.43 | Mean, Fig. 7E (UMN apical dendrites with vacuoles) [1, 2]: 16.43 | Mean Diff., Fig. 7E, G vehicle vs. G NU-9 (100) ([1]; WT-UeGFP vehicle minus NU-9 100 mg/kg/day, Tukey's multiple comparisons test): 17.11 | Mean Diff., Fig. 4G, G Vehicle vs. G NU-9 (100) ([1]; WT-UeGFP vehicle minus WT-UeGFP NU-9 100 mg/kg/day, Tukey's multiple comparisons test): 11.77 | percentage of UMN apical dendrites with vacuoles ([1]; WT‐UeGFP mice, 100 mg/kg/day oral gavage P60–P120): 16% ± 5% | Hanging wire test, group mean (Mean 1 / Mean 2) (hSOD1^G93A‐UeGFP mice; NU-9 20 mg/kg/day, P102, max 60 s): 43 s | Hanging wire test, group mean (Mean 1 / Mean 2) (hSOD1^G93A‐UeGFP mice; NU-9 20 mg/kg/day, P109, max 60 s): 37.48 s | Hanging wire test, group mean (Mean 1 / Mean 2) (hSOD1^G93A‐UeGFP mice; NU-9 20 mg/kg/day, P116, max 60 s): 27.33 s | Hanging wire test, group mean (Mean 1 / Mean 2) (hSOD1^G93A‐UeGFP mice; NU-9 100 mg/kg/day, P102, max 60 s): 53.3 s | Hanging wire test, group mean (Mean 1 / Mean 2) (hSOD1^G93A‐UeGFP mice; NU-9 100 mg/kg/day, P109, max 60 s): 58.89 s | Hanging wire test, group mean (Mean 1 / Mean 2) (hSOD1^G93A‐UeGFP mice; NU-9 100 mg/kg/day, P116, max 60 s): 51.15 s | Hanging wire test, mean difference vehicle minus NU-9 (hSOD1^G93A‐UeGFP mice; hSOD1G93A-UeGFP (GS) vehicle vs. NU-9 20 mg/kg/day, P102): -0.6667 s | Hanging wire test, mean difference vehicle minus NU-9 (hSOD1^G93A‐UeGFP mice; hSOD1G93A-UeGFP (GS) vehicle vs. NU-9 20 mg/kg/day, P109): 6.746 s | Hanging wire test, mean difference vehicle minus NU-9 (hSOD1^G93A‐UeGFP mice; hSOD1G93A-UeGFP (GS) vehicle vs. NU-9 20 mg/kg/day, P116): -4.722 s | Hanging wire test, mean difference vehicle minus NU-9 (hSOD1^G93A‐UeGFP mice; hSOD1G93A-UeGFP (GS) vehicle vs. NU-9 100 mg/kg/day, P102): -10.96 s | Hanging wire test, mean difference vehicle minus NU-9 (hSOD1^G93A‐UeGFP mice; hSOD1G93A-UeGFP (GS) vehicle vs. NU-9 100 mg/kg/day, P109): -14.67 s | Hanging wire test, mean difference vehicle minus NU-9 (hSOD1^G93A‐UeGFP mice; hSOD1G93A-UeGFP (GS) vehicle vs. NU-9 100 mg/kg/day, P116): -28.54 s | Mean Diff. (wire hanging), vehicle vs. NU-9 (hSOD1^G93A‐UeGFP mice; hSOD1G93A-UeGFP vehicle vs. NU-9 20 mg/kg/day, P60): -0.5238 | Mean Diff. (wire hanging), vehicle vs. NU-9 (hSOD1^G93A‐UeGFP mice; hSOD1G93A-UeGFP vehicle vs. NU-9 20 mg/kg/day, P67): 4.175 | Mean Diff. (wire hanging), vehicle vs. NU-9 (hSOD1^G93A‐UeGFP mice; hSOD1G93A-UeGFP vehicle vs. NU-9 20 mg/kg/day, P74): -3.46 | Mean Diff. (wire hanging), vehicle vs. NU-9 (hSOD1^G93A‐UeGFP mice; hSOD1G93A-UeGFP vehicle vs. NU-9 20 mg/kg/day, P81): -1.095 | Mean Diff. (wire hanging), vehicle vs. NU-9 (hSOD1^G93A‐UeGFP mice; hSOD1G93A-UeGFP vehicle vs. NU-9 20 mg/kg/day, P88): -2.452 | Mean Diff. (wire hanging), vehicle vs. NU-9 (hSOD1^G93A‐UeGFP mice; hSOD1G93A-UeGFP vehicle vs. NU-9 20 mg/kg/day, P95): -5.254 | Mean Diff. (wire hanging), vehicle vs. NU-9 (hSOD1^G93A‐UeGFP mice; hSOD1G93A-UeGFP vehicle vs. NU-9 20 mg/kg/day, P102): -0.6667 | Mean Diff. (wire hanging), vehicle vs. NU-9 (hSOD1^G93A‐UeGFP mice; hSOD1G93A-UeGFP vehicle vs. NU-9 20 mg/kg/day, P109): 6.746 | Mean Diff. (wire hanging), vehicle vs. NU-9 (hSOD1^G93A‐UeGFP mice; hSOD1G93A-UeGFP vehicle vs. NU-9 20 mg/kg/day, P116): -4.722 | Mean Diff. (wire hanging), vehicle vs. NU-9 (hSOD1^G93A‐UeGFP mice; hSOD1G93A-UeGFP vehicle vs. NU-9 100 mg/kg/day, P60): -5.333 | Mean Diff. (wire hanging), vehicle vs. NU-9 (hSOD1^G93A‐UeGFP mice; hSOD1G93A-UeGFP vehicle vs. NU-9 100 mg/kg/day, P67): 1.222 | Mean Diff. (wire hanging), vehicle vs. NU-9 (hSOD1^G93A‐UeGFP mice; hSOD1G93A-UeGFP vehicle vs. NU-9 100 mg/kg/day, P74): -7.519 | Mean Diff. (wire hanging), vehicle vs. NU-9 (hSOD1^G93A‐UeGFP mice; hSOD1G93A-UeGFP vehicle vs. NU-9 100 mg/kg/day, P81): -5.148 | Mean Diff. (wire hanging), vehicle vs. NU-9 (hSOD1^G93A‐UeGFP mice; hSOD1G93A-UeGFP vehicle vs. NU-9 100 mg/kg/day, P88): -9.13 | Mean Diff. (wire hanging), vehicle vs. NU-9 (hSOD1^G93A‐UeGFP mice; hSOD1G93A-UeGFP vehicle vs. NU-9 100 mg/kg/day, P95): -7.704 | Mean Diff. (wire hanging), vehicle vs. NU-9 (hSOD1^G93A‐UeGFP mice; hSOD1G93A-UeGFP vehicle vs. NU-9 100 mg/kg/day, P102): -10.96 | Mean Diff. (wire hanging), vehicle vs. NU-9 (hSOD1^G93A‐UeGFP mice; hSOD1G93A-UeGFP vehicle vs. NU-9 100 mg/kg/day, P109): -14.67 | Mean Diff. (wire hanging), vehicle vs. NU-9 (hSOD1^G93A‐UeGFP mice; hSOD1G93A-UeGFP vehicle vs. NU-9 100 mg/kg/day, P116): -28.54 | wire hanging, Average (hSOD1^G93A‐UeGFP mice; NU-9 20 mg/kg/day po, P60): 55.1905 s | wire hanging, Average (hSOD1^G93A‐UeGFP mice; NU-9 20 mg/kg/day po, P67): 51.7143 s | wire hanging, Average (hSOD1^G93A‐UeGFP mice; NU-9 20 mg/kg/day po, P74): 55.2381 s | wire hanging, Average (hSOD1^G93A‐UeGFP mice; NU-9 20 mg/kg/day po, P81): 54.0952 s | wire hanging, Average (hSOD1^G93A‐UeGFP mice; NU-9 20 mg/kg/day po, P88): 52.9524 s | wire hanging, Average (hSOD1^G93A‐UeGFP mice; NU-9 20 mg/kg/day po, P95): 54.8095 s | wire hanging, Average (hSOD1^G93A‐UeGFP mice; NU-9 20 mg/kg/day po, P102): 43 s | wire hanging, Average (hSOD1^G93A‐UeGFP mice; NU-9 20 mg/kg/day po, P109): 37.4762 s | wire hanging, Average (hSOD1^G93A‐UeGFP mice; NU-9 20 mg/kg/day po, P116): 27.3333 s | Mean (wire hanging) (hSOD1^G93A‐UeGFP mice; NU-9 20 mg/kg/day, P60): 55.19 | Mean (wire hanging) (hSOD1^G93A‐UeGFP mice; NU-9 20 mg/kg/day, P67): 51.71 | Mean (wire hanging) (hSOD1^G93A‐UeGFP mice; NU-9 20 mg/kg/day, P74): 55.24 | Mean (wire hanging) (hSOD1^G93A‐UeGFP mice; NU-9 20 mg/kg/day, P81): 54.1 | Mean (wire hanging) (hSOD1^G93A‐UeGFP mice; NU-9 20 mg/kg/day, P88): 52.95 | Mean (wire hanging) (hSOD1^G93A‐UeGFP mice; NU-9 20 mg/kg/day, P95): 54.81 | wire hanging, Average (hSOD1^G93A‐UeGFP mice; NU-9 100 mg/kg/day po, P60): 60 s | wire hanging, Average (hSOD1^G93A‐UeGFP mice; NU-9 100 mg/kg/day po, P67): 54.6667 s | wire hanging, Average (hSOD1^G93A‐UeGFP mice; NU-9 100 mg/kg/day po, P74): 59.2963 s | wire hanging, Average (hSOD1^G93A‐UeGFP mice; NU-9 100 mg/kg/day po, P81): 58.1481 s | wire hanging, Average (hSOD1^G93A‐UeGFP mice; NU-9 100 mg/kg/day po, P88): 59.6296 s | wire hanging, Average (hSOD1^G93A‐UeGFP mice; NU-9 100 mg/kg/day po, P95): 57.2593 s | wire hanging, Average (hSOD1^G93A‐UeGFP mice; NU-9 100 mg/kg/day po, P102): 53.2963 s | wire hanging, Average (hSOD1^G93A‐UeGFP mice; NU-9 100 mg/kg/day po, P109): 58.8889 s | wire hanging, Average (hSOD1^G93A‐UeGFP mice; NU-9 100 mg/kg/day po, P116): 51.1481 s | Mean (wire hanging) (hSOD1^G93A‐UeGFP mice; NU-9 100 mg/kg/day, P60): 60 | Mean (wire hanging) (hSOD1^G93A‐UeGFP mice; NU-9 100 mg/kg/day, P67): 54.67 | Mean (wire hanging) (hSOD1^G93A‐UeGFP mice; NU-9 100 mg/kg/day, P74): 59.3 | Mean (wire hanging) (hSOD1^G93A‐UeGFP mice; NU-9 100 mg/kg/day, P81): 58.15 | Mean (wire hanging) (hSOD1^G93A‐UeGFP mice; NU-9 100 mg/kg/day, P88): 59.63 | Mean (wire hanging) (hSOD1^G93A‐UeGFP mice; NU-9 100 mg/kg/day, P95): 57.26 | hanging wire test, latency to fall (hSOD1^G93A‐UeGFP mice; hSOD1^G93A‐UeGFP mice, 100 mg/kg/day, P102): 53.3 ± 2.9 s
